Laboratory results taken from US11731933B2, “Device and method for the desalination of water by means of thermal deionisation and liquid-phase ion extraction liquid” (ADIONICS, priority 2015, dated 2023).
≈ marks a conversion by molar mass, not a printed value. Where “and” joins values, the source holds several entries; their conditions need not be identical. Equal entries are not always repeated. Where two headings read alike, the source gives them in different places.

Assays:
pKa in water at 25° C. = type: physicochemical
Experimental: The pKa (or acid constant) is defined as pKa=−log10(Ka), where Ka is the acid dissociation constant which is measured in a standard manner for such pKa. The recommended standard measurement method for high, basic pKa is preferably that described by Popov and al, IUPAC—Guidelines for NMR measurements for determination of high and low pKa Pure Apl. Chem., Vol. 78, No. 3, pp. 663-675, 2006.

[1] = Solubility in water (UV-visible spectrometry); type: physicochemical; conditions: for solubility: water
Text: The hydrophobicity or solubility of a compound can be measured by standard methods and in particular by UV-visible spectrometry.

[2] = methanol, published complexing constants, cited from earlier work
[3] = NaCl extraction from 0.2M NaCl water by ASM/CEM composition, ion chromatography of treated water; conditions: ASM: 3TFMPhOH; CEM 0.2M; NaCl 0.2M water
Experimental: To 3 mL of 3-(trifluoromethyl)phenol, was added 217 mg of Dibenzo-18-crown-6 in order to obtain a formulation with 0.2 mole/L of DB18C6. This sealed formulation was then orbitally stirred at 500 rpm overnight after 1 mL of distilled water was added twice to allow water saturation of the whole.
The next morning, an aqueous 0.2 mol/L NaCl solution was prepared from twice distilled water, while the formulation that was stirred overnight was allowed to stand for decantation. A clear decantation of the two colorless phases is obtained in a few minutes. 3 mL of the organic extraction solution is then removed and transferred to a flask containing 3 mL of this salt water containing 0.2 M NaCl, then the flask is sealed and orbitally stirred (usually 500 rpm), for 3 hours and at room temperature. It is verified that droplets of the order of 1-2 mm are present in quantity at the selected stirring speed (400 to 900 rpm).
After stirring for 2 hours, stirring is stopped and the whole is left to stand for decantation for at least 10 minutes until the two phases are completely separated. The upper aqueous phase is then removed and then stirred and diluted for analysis of its salinity by a Metrohm Ion Chromatography Incorporating a suitable cation analysis column and a suitable anion analysis column. Similarly, the initial aqueous solution of 0.2M NaCl is also analyzed by this ion chromatography equipment to determine its relative concentration of sodium and chlorides. […]

Log P = type: physicochemical; conditions: for logP: Exp
[4] = NaCl extraction from 0.4M NaCl water by ASM + Calix[4]Est in chloroform (Example 11)
Experimental: The extraction composition is obtained by solubilizing an amount of 4-tert-butyl Calix[4]arene tetraethyl Ester (CAS No. 97600-39-0) and ASM in chloroform CHCl3 to obtain a final concentration after solubilization of the CEM and ASM of 0.3 mol/L for Calix[4]Est and of 0.3 mol/L for ASM, respectively. These sealed formulations were then orbitally stirred at 500 rpm for 2 hours after adding an equivalent volume of twice distilled water to allow water saturation of the entire formulation and control of pH output (pH=7). The extraction composition is then put to stand to settle. All the compositions tested are stable and rapidly decanted (a few minutes at the most).
A 0.4 mol/L NaCl aqueous solution was prepared from twice distilled water.
The organic extraction composition is then slightly heated to promote solubilization of the compounds by hot air gun (temperature of about 50 to 60° C.) for a few seconds (10 to 30 seconds) until a clear solution is obtained.
3 mL of the organic extraction composition is then removed from the lower phase of the settled two-phase mixture and transferred to a vial containing 3 mL of salt water at 0.4 M NaCl and then the flask is sealed and orbitally stirred (at 500 revolutions per minute), for 2 hours at room temperature (RT), that is to say between 20 and 25° C. In the case of extraction at 60° C., magnetic stirring (at 500 revolutions per minute), for 2 hours, is carried out with indirect heating in a metal mold on a heating plate. It is verified that droplets of the order of 1-2 mm are present during these agitations in order to be certain to achieve equilibrium in the NaCl distribution between the two liquid phases at the end of stirring. The appearance of the organic and aqueous phases is clear and colorless or slightly cloudy.
After stirring for 2 hours, stirring is stopped and the solution is put to stand to settle within 10 minutes, at least until the two phases have completely separated off, at the temperature of the test. The upper aqueous phase is then removed and then stirred and diluted for analysis of its salinity by a Metrohm Ion Chromatograph incorporating a suitable cation analysis column and a suitable anion analysis column. Similarly, the initial aqueous solution of NaCl at 0.4M is also analyzed by this ion chromatograph to determine its relative molar concentration in sodium and in chlorides. AN extractions and analyzes were duplicated.

[5] = methanol; cited from earlier work
[6] = NaCl extraction from 0.2M NaCl water by ASM/CEM composition, ion chromatography of treated water; conditions: dichloromethane instead of 3TFMPhOH
[7] = RT, CEM 0.3 Mol/L, ASM 0.3 Mol/L in CHCl3, 0.4 M NaCl

Compound	pKa (pKa in water at 25° C.)	Log K(Na+, MeOH, 25° C.) [2]	Solubility in water [1]	Extraction rate at 23° C., Cl− [3] [%]	Extraction rate at 23° C., Na+ [3] [%]	Extraction rate at 23° C., mean NaCl [3] [%]	Log K(K+, MeOH, 25° C.) [5]	further results
OCc1cc(C(F)(F)C(F)(F)C(F)(F)C(F)(F)F)cc(C(F)(F)C(F)(F)C(F)(F)C(F)(F)F)c1	14	–	–	–	–	–	–	solubility [1]: 0.5 µM (≈ 0.272 µg/mL)
OCc1cc(C(F)(F)F)c(C(F)(F)F)c(C(F)(F)F)c1	13.6	–	–	–	–	–	–	solubility ([1]; read-out: Solubility in water): 390 µM (≈ 122 µg/mL)
4-tert-Butylcalix[4]arene-O,O′,O″,O′′′- tetraacetic Acid Tetraethyl Ester [Calix[4]Est]	–	5.0	< 1.10^−6 mMole/L	77	75	76	–	Log K(Na+, MeOH, 25° C.) ([2]; listed as Calix4Est): 5.0-5.7
Oc1cccc(C(F)(F)F)c1 [ASM 1, 3-(Trifluoromethyl)phenol]	8.68	–	–	–	–	–	–	Log P (Log P): 2.95
OCc1cccc(C(F)(F)F)c1 [ASM 2, [3-(Trifluoromethyl)phenyl]methanol]	14.7	–	32 mmol/L (≈ 5640 µg/mL)	–	–	–	–	–
OCc1cc(C(F)(F)F)cc(C(F)(F)F)c1 [ASM 3, [3,5-Bis(Trifluoromethyl)phenyl]methanol]	14.7	–	–	–	–	–	–	solubility ([1]; read-out: Solubility in water): 2290 µM (≈ 559 µg/mL); NaCl - 20° C. % ext (average) ([4]; 20° C., average molar extraction): 7.9%; Mol % Cl- extracted from the water to be treated ([4]; 60° C., CEM 0.3 Mol/L, ASM 0.3 Mol/L in CHCl3, 0.4 M NaCl): not detected; NaCl - 60° C. % ext (average) ([4]; 60° C., average molar extraction): 0.0%; Mol % Cl- extracted from the water to be treated [4, 7]: 8.2% and 8.8%; Mol % Na+ extracted from the water to be treated [4, 7]: 6.8% and 7.6%; Δ % ext ([4]; difference 20° C. minus 60° C.): 7.9%
OCc1cccc(C(F)(F)C(F)(F)C(F)(F)C(F)(F)F)c1 [ASM 5, [3-(Perfluorobutyl)phenyl]methanol]	14.7	–	< 0.077 mmol/L	–	–	–	–	solubility [1]: < 77 µM
OCc1cc(C(F)(F)C(F)(F)C(F)(F)F)cc(C(F)(F)C(F)(F)C(F)(F)F)c1 [ASM 6, [3,5-(Perfluoropropyl)phenyl]methanol]	14.2	–	–	–	–	–	–	solubility [1]: < 70 µM
c1ccc2c(c1)OCCOCCOCCOCCO2 [B15C5, Benzo[b]-1,4,7,10,13-pentaoxa-cyclopentadecane]	–	3.03	–	12.5	17.2	14.8	3.93	logP (Log P): 0.91
C1CCC2OCCOCCOCCOCCOC2C1 (stereo not drawn) [C15C5, Perhydrobenzo[b]-1,4,7,10,′3-pentaoxacyclopentadecane]	–	3.71-3.9	–	30.7	21.0	26.0	3.96	–
c1ccc2c(c1)OCCOCCOc1ccccc1OCCOCCO2 [DB18C6, Dibenzo[b,k]-1,4,7,10,13,16-hexaoxacyclooctadecane]	–	4.36-4.49	1.1 mmol/L (≈ 396 µg/mL)	38.8	30.8	34.6	5.12	logP (Log P): 2.2; NaCl extraction with the ASM replaced by dichloromethane [6]: ≤ 1.6%
c1ccc2c(c1)OCCOCCOCCOc1ccccc1OCCOCCO2 [DB21C7, 6,7,9,10,12,13,20,21,23,24-Decahydrodibenzo[b,k][1,4,7,10,13,16,19] heptaoxacyclohenicosine]	–	2.4	–	20.7	9.4	15.2	4.19	–
c1ccc2c(c1)OCCOCCOCCOc1ccccc1OCCOCCOCCO2 [DB24C8, 6,7,9,10,12,13,20,21,23,24,26,27-Dodecahydrodibenzo[b,n][1,4,7,10,13,16,19,22] octaoxacyclotetracosine]	–	2.25 and 2.35	–	37.1	35.5	36.3	3.61	logP (Log P): 2.11
c1ccc2c(c1)OCCN1CCOCCOCCN(CCO2)CCOc2ccccc2OCC1 [DB[2.2.2], 5,6,14,15-DiBenzo-4,7,13,16,21,24-hexaoxa-1,10-diazabicyclo[8.8.8] hexacosane]	–	7.60	2.5 mmol/L (≈ 1180 µg/mL)	–	–	–	8.74	–
C1CCC2OCCOCCOC3CCCCC3OCCOCCOC2C1 (stereo not drawn) [DC18C6, Dicyclohexano-1,4,7,10,13,16-hexaoxacyclooctadecane]	–	4.27	36 mmol/L (≈ 13400 µg/mL)	30.3	29.1	29.7	5.97	–
C1CCC2OCCN3CCOCCOCCN(CCOC2C1)CCOC1CCCCC1OCC3 (stereo not drawn) [DC[2.2.2], 5,6,14,15-DiCyclohexano-4,7,13,16,21,24-hexaoxa-1,10-diazabicyclo[8.8.8] hexacosane]	–	6.02	3 mmol/L (≈ 1450 µg/mL)	–	–	–	6.92	–
